Results on 22 compounds are retold here after paper PMC9290507, “Rh^II‐Catalyzed De‐symmetrization of Ethane‐1,2‐dithiol and Propane‐1,3‐dithiol Yields Metallo‐β‐lactamase Inhibitors” (Chemmedchem, 2021).

Each structure is given as a SMILES string.

For assay [1], the target named is T1, NDM‐1 (Klebsiella pneumoniae, UniProt C7C422).
T1 construct: made in house
In words: Fluorescence-based enzyme activity assay (Fluorocillin), NDM-1. The format is biochemical. The protocol:
(§1) In order to investigate the structure‐activity relationships of the dithiol library, we measured the inhibitory activity of 3 a–x in a fluorescence‐based enzyme activity assay (Table 1). Two relevant β‐lactamase isoforms, NDM‐1 and VIM‐1 were selected for in vitro assays. The fluorogenic substrate fluorocillin[15] was prepared according to literature and its conversion was monitored as described previously.[6] In general, a linear relationship between the potency of 3 a–x towards both enzymes could be observed, however, inhibitory potency towards VIM‐1 was almost tenfold higher (Figure 3). A very clear preference for the propane‐1,3‐dithiol over ethane‐1,2‐dithiol compounds could be observed from matched molecular pairs.
(§2) Activity assays for MBLs were performed at room temperature in black polystyrol 96well plates (Corning, Corning, NY, USA) using dicefalotinodifluorofluorescein (Fluorocillin) as a substrate. Proteins were diluted in assay buffer (HEPES 50 mM, pH 7.5 containing 0.01 %Triton X‐100), with final protein concentrations of NDM‐1: 3 nM, or VIM‐1: 4 nM. Samples were supplemented with an equimolar amount of ZnCl2. An amount of 1 μL of compounds 3 a–3 x at different concentrations was incubated with 89 μL of enzyme in assay buffer. After an incubation period of 30 min at room temperature, 10 μL of Fluorocillin substrate was added to yield the final assay volume of 100 μL. Final concentration of DMSO was 1 %. The fluorescence emitted by the fluorescent product difluorofluorescein was monitored every 45 s for 30 cycles using a Tecan fluorescent plate reader (Infinite 200; excitation at 495 nm and emission at 525 nm) and was compared with a standard curve. The rate of the enzymatic reaction was obtained by dividing the quantity of the fluorescent product (RFU) by time (min). Negative controls were measured in the absence of enzyme, whereas the positive controls were measured in the presence of enzyme and in the absence of inhibitors. The inhibitory effect of each substance was measured in triplicate in three independent experiments. IC50 values were calculated using data obtained from measurements with at least eight different inhibitor concentrations, applying a sigmoidal dose–response (variable slope with four parameters) equation using GraphPad Prism 5 (GraphPad Software, La Jolla, CA, USA) software. In order to investigate the inhibitory activity of 3 a, 3 o, or 3 s in the presence of a high Zn^2+ concentration, assay buffer containing an additional 100 μM ZnCl2 was used. The assay was performed as described above with NDM‐1 or VIM‐1 and 10 μM of 3 a, 3 o, or 3 s.

The target in assay [2] is T2, VIM‐1 (Pseudomonas aeruginosa, UniProt A0A0F7KYQ8).
T2 construct: made in house
The experiment in a line: Fluorescence-based enzyme activity assay (Fluorocillin), VIM-1. The format is biochemical. As to the method:
as §1, §2

For assay [3], the system named is E. coli NDM‐1 (T2359). The experiment in a line: Checkerboard synergy assay with imipenem, E. coli NDM-1. The note with it: Escherichia coli, read-out: Imipenem MIC. The format is cell-based. The protocol: (§3) To investigate this, the MIC of imipenem or combined with various concentrations of compound 3a, 3o, or 3 s was determined against E. coli transformants producing NDM‐1 or VIM‐1 (Table 3 and 4).
(§4) Minimal inhibitory concentrations (MICs) of imipenem monohydrate (Sigma‐Aldrich)±compound 3 a, 3 o, or 3 s against transformed E. coli strains producing NDM‐1 or VIM‐1 were determined according to microdilution method established by Clinical and Laboratory Standards Institute (CLSI).^20 The checkerboard assay was performed to test for synergy in vitro. The microtiter‐plates were set up with serial doubling dilutions of compound 3 a, 3 o, or 3 s (2‐128 mg/L) and imipenem (0.125‐128 mg/L).

In assay [4] the test system is E. coli VIM‐1 (T2544). In words: Checkerboard synergy assay with imipenem, E. coli VIM-1. The format is cell-based. The conditions noted are these: Escherichia coli, read-out: Imipenem MIC. The protocol: as §3, §4

T1 sequence (C7C422 29-270, looked up, species assumed): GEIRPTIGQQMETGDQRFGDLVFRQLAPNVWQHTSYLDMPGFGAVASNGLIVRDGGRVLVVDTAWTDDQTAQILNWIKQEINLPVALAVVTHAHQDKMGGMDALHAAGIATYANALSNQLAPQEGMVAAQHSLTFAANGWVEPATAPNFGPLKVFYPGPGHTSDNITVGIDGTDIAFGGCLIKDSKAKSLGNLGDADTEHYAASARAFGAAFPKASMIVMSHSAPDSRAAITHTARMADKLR

For `CN(C(=O)CSCCS)[C@H]1CCCC[C@@H]1O` (relative stereo) [3 v, N‐((1S*,2S*)‐2‐Hydroxycyclohexyl)‐2‐((2‐mercaptoethyl)thio)‐N‐methylacetamide], the IC50 in assay [1] was determined as 5500 ± 300 nM; in assay [2] it was 330 ± 20 nM.
The like results for `Cc1ccc(C(=O)CSCCS)cc1` [3 b, 2‐((2‐Mercaptoethyl)thio)‐1‐(p–tolyl)ethanone] were, in that order, 3910 ± 420 nM and 220 ± 30 nM.
The like results for `Cc1ccc(C(=O)CSCCCS)cc1` [3 c, 2‐((3‐Mercaptopropyl)thio)‐1‐(p–tolyl)ethanone] were, in that order, 250 ± 60 nM and 70 ± 10 nM.
As to `O=C(CSCCS)c1ccc(Cl)cc1` [3 d, 1‐(4‐Chlorophenyl)‐2‐((2‐mercaptoethyl)thio)ethanone], the IC50 in assay [1] came out at 5630 ± 1190 nM; in assay [2], 230 ± 10 nM.
Regarding `O=C(CSCCCS)c1ccc(F)cc1` [3 e, 1‐(4‐Fluorophenyl)‐2‐((3‐mercaptopropyl)thio)ethanone], the IC50 in assay [1] was found to be 600 ± 30 nM; in assay [2], 230 ± 50 nM.
With `COc1ccc(C(=O)CSCCS)cc1` [3 f, 2‐((2‐Mercaptoethyl)thio)‐1‐(4‐methoxyphenyl)ethanone], the IC50 in assay [1] came to 1340 ± 320 nM; in assay [2] it was 180 ± 10 nM.
Take `COc1ccc(C(=O)CSCCCS)cc1` [3 g, 2‐((3‐Mercaptopropyl)thio)‐1‐(4‐methoxyphenyl)ethanone]: the figures for the IC50 in assay [1] and in assay [2] were 430 ± 20 nM and 140 nM, respectively.
In the case of `O=C1OCCC1SCCS` (centres unmarked) [3 h, 3‐((2‐Mercaptoethyl)thio)dihydrofuran‐2(3H)‐one], the IC50 in assay [1] was found to be 3630 ± 470 nM; in assay [2], 460 ± 30 nM.
The like results for `COC(=O)C(SCCS)c1ccc(Cl)cc1` (centres unmarked) [3 i, Methyl 2‐(4‐chlorophenyl)‐2‐((2‐mercaptoethyl)thio)acetate] were, in that order, 880 ± 160 nM and 190 ± 10 nM.
For `CCOC(=O)C(SCCS)c1ccc([N+](=O)[O-])cc1` (centres unmarked) [3 j, Ethyl 2‐((2‐mercaptoethyl)thio)‐2‐(4‐nitrophenyl)acetate], the 50% inhibitory concentration (IC50) in assay [1] is 1550 ± 420 nM; in assay [2], 900 ± 60 nM.
For the compound `CCOC(=O)C(SCCCS)c1ccc([N+](=O)[O-])cc1` (centres unmarked) [3 k, Ethyl 2‐((3‐mercaptopropyl)thio)‐2‐(4‐nitrophenyl)acetate], the IC50 in assay [1] was determined as 7790 ± 1300 nM; in assay [2], 730 ± 50 nM.
The like results for `COC(=O)CC(SCCCS)C(=O)OC` (centres unmarked) [3 l, Dimethyl 2‐((3‐mercaptopropyl)thio)succinate] were, in that order, 440 ± 110 nM and 40 ± 10 nM.
The like results for `CN1CCC(SCCCS)C1=O` (centres unmarked) [3 m, 3‐((3‐Mercaptopropyl)thio)‐1‐methylpyrrolidin‐2‐one] were, in that order, 1580 ± 220 nM and 180 nM.
Regarding `O=C1C(SCCS)CCN1c1ccccc1` (centres unmarked) [3 n, 3‐((2‐Mercaptoethyl)thio)‐1‐phenylpyrrolidin‐2‐one], the figures for the IC50 in assay [1] and in assay [2] were 1410 ± 70 nM and 80 nM, respectively.
Consider `O=C1C(SCCS)CCN1c1cccc(C(F)(F)F)c1` (centres unmarked) [3 p, 3‐((2‐Mercaptoethyl)thio)‐1‐(3‐(trifluoromethyl)phenyl)pyrrolidin‐2‐one], for which the IC50 in assay [1] is 2080 ± 110 nM; in assay [2], 220 ± 10 nM.
`O=C1C(SCCCS)CCN1c1cccc(C(F)(F)F)c1` (centres unmarked) [3 q, 3‐((3‐Mercaptopropyl)thio)‐1‐(3‐(trifluoromethyl)phenyl)pyrrolidin‐2‐one]: the concentration for half-maximal inhibition (IC50) worked out at 480 ± 10 nM in assay [1] and 70 ± 10 nM in assay [2].
Take `O=C1C(SCCS)CCN1c1nccs1` (centres unmarked) [3 r, 3‐((2‐Mercaptoethyl)thio)‐1‐(thiazol‐2‐yl)pyrrolidin‐2‐one]: the values for the IC50 in assay [1] and in assay [2] were 1540 ± 30 nM and 40 ± 20 nM, respectively.
As to `N#Cc1ccc(N2CCC(SCCS)C2=O)cc1` (centres unmarked) [3 t, 4‐(3‐((2‐Mercaptoethyl)thio)‐2‐oxopyrrolidin‐1‐yl)benzonitrile], the IC50 was 1190 ± 120 nM in assay [1] and 100 ± 20 nM in assay [2].
As to `O=C(CSCCCS)N1CCN(Cc2ccc(Cl)cc2)CC1` [3 u, 1‐(4‐(4‐Chlorobenzyl)piperazin‐1‐yl)‐2‐((3‐mercaptopropyl)thio)ethan‐1‐one], the IC50 in assay [1] came out at 3310 ± 120 nM; in assay [2] it was 300 ± 20 nM.
The corresponding values for `CN(Cc1ccc(Cl)cc1)C(=O)CSCCS` [3 w, N‐(4‐Chlorobenzyl)‐2‐((2‐mercaptoethyl)thio)‐N‐methylacetamide] are 580 ± 30 nM and 100 ± 10 nM.
For the compound `Cc1ccc(S(=O)(=O)N2CCN(C(=O)CSCCS)CC2)cc1` [3 x, 2‐((2‐Mercaptoethyl)thio)‐1‐(4‐tosylpiperazin‐1‐yl)ethanone], the IC50 in assay [1] came to 2400 ± 130 nM; in assay [2], 400 ± 30 nM.
As to `C[C@@H](O)[C@H]1C(=O)N2C(C(=O)O)=C(SCCN=CN)C[C@H]12` [Imipenem, imipenem, reference compound], the values for the MIC in assay [3] and in assay [4] were 128 µg/mL and 32 µg/mL, respectively.

Usually IC50 stands for the midpoint of a concentration-inhibition curve. A lower IC50 goes with higher potency. Broadly, the MIC is the smallest concentration in the dilution series that meets the test's criterion for growth inhibition.
